In patent US10513521B2, “Compositions and methods for inhibiting BMP” (The Brigham and Women's Hospital, Inc., priority 2014, dated 2019):
pIC50: −log10 of the molar value.

How the values were obtained:
[1] = biological target: ALK6 (Homo sapiens, UniProt O00238); test: TR-FRET enzymatic ALK kinase assay, ALK6
Experimental: (§1) Briefly, the ALKs enzymatic assay was initiated by dispense 2.5 μl enzyme in 1× kinase reaction buffer. The assay plate was then added with compounds followed by incubation at room temperature for 10 minutes. Then 2.5 μl/well substrate was added.

[2] = biological target: ALK3 (Homo sapiens, UniProt P36894); test: TR-FRET enzymatic ALK kinase assay, ALK3
Experimental: as §1

[3] = biological target: T1, ALK2 (Homo sapiens, UniProt Q04771); test: TR-FRET enzymatic ALK kinase assay, ALK2
T1 sequence (Q04771 21-509): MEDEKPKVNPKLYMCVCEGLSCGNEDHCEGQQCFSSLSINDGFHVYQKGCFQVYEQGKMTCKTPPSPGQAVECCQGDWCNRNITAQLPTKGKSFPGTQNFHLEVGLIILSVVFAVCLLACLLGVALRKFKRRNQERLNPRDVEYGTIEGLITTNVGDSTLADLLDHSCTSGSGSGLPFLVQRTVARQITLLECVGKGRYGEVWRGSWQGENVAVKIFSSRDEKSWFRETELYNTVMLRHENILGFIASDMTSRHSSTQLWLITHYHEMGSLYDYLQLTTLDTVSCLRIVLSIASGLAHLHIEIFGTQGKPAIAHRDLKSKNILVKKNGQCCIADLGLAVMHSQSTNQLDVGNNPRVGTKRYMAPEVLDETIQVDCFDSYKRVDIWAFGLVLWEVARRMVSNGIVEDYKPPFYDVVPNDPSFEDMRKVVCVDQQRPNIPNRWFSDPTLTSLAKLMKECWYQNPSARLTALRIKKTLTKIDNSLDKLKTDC
Experimental: as §1

[4] = biological target: T2, ALK4 (Homo sapiens, UniProt P36896); test: TR-FRET enzymatic ALK kinase assay, ALK4
T2 sequence (P36896 24-505): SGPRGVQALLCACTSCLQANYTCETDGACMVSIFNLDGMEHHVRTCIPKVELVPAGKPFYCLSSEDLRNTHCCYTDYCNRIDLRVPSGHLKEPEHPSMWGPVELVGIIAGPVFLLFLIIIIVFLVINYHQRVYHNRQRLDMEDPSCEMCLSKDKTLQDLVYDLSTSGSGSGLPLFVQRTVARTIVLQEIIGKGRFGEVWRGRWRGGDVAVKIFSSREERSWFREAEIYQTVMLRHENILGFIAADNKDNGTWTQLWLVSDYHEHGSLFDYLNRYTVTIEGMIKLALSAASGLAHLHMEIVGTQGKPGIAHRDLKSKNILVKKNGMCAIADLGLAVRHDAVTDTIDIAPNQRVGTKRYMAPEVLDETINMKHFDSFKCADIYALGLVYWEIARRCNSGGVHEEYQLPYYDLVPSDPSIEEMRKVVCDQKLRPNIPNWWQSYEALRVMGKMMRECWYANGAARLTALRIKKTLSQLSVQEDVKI
Experimental: as §1

[5] = biological target: ALK1 (Homo sapiens, UniProt P37023); test: TR-FRET enzymatic ALK kinase assay, ALK1
Chain of ALK1 (P37023 22-503): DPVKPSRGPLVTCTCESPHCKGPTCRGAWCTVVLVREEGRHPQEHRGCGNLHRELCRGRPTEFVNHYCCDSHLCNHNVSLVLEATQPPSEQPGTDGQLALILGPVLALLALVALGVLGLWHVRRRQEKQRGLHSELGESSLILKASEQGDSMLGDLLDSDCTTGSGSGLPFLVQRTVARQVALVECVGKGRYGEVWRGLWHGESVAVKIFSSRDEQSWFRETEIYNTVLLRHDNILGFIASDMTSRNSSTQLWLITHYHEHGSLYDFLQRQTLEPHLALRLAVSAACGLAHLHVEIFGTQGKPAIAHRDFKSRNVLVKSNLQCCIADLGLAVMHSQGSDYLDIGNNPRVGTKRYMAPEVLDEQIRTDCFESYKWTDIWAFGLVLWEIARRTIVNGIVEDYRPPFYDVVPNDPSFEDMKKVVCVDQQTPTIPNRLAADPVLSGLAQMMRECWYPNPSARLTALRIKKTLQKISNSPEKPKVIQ
Experimental: as §1

[6] = biological target: T3, ALK5 (Homo sapiens, UniProt P36897); test: TR-FRET enzymatic ALK kinase assay, ALK5
T3 sequence (P36897 34-503): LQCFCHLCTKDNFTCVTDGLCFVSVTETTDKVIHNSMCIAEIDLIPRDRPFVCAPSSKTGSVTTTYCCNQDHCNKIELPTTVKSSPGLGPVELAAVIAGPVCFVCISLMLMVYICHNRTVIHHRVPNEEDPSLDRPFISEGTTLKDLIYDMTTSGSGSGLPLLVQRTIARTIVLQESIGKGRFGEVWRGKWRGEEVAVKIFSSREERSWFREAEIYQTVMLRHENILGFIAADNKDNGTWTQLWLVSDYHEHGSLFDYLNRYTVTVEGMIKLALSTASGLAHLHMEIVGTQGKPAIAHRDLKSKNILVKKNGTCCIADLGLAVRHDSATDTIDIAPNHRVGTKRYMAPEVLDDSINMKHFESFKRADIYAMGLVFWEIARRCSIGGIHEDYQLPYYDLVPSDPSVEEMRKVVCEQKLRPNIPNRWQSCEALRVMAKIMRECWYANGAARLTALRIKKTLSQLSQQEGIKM
Experimental: Six ALK kinase enzyme assays were developed for determination of compound activities on ALK1, ALK2, ALK3, ALK4, ALK5 and ALK6.
as §1

Chain of ALK6 (O00238 14-502): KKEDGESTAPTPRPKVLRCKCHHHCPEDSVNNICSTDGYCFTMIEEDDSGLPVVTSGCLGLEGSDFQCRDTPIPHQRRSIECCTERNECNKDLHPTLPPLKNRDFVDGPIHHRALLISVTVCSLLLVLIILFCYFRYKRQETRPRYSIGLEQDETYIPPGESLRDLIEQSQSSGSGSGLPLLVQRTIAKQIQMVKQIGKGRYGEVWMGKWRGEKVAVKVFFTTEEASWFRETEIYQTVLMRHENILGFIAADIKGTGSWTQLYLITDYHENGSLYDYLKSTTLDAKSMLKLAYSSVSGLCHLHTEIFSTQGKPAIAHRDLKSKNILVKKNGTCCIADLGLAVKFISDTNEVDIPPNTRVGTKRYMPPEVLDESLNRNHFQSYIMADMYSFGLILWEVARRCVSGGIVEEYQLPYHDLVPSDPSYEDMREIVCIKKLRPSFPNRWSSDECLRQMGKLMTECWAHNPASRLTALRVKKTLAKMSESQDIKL
Chain of ALK3 (P36894 24-532): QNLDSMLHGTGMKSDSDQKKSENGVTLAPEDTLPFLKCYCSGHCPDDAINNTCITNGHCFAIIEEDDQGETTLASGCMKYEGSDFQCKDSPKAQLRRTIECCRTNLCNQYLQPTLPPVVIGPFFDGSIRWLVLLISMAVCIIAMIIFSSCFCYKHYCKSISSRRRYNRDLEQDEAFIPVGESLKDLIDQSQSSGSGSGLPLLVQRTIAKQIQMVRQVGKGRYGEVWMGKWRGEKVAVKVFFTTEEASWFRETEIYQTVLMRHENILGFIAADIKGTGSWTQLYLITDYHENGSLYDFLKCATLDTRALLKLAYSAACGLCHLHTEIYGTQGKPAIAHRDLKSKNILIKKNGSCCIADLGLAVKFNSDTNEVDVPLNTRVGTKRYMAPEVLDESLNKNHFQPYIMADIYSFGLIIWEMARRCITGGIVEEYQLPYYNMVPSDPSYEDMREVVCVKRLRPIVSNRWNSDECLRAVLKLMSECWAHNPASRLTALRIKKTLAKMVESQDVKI

Structure (SMILES) | pIC50 [1] | pIC50 [2] | pIC50 [3] | pIC50 [4] | pIC50 [5] | pIC50 [6]
NC(c1cccc(-c2cnn3cc(-c4ccc(OC5(CN6CCOCC6)CC5)cc4)cnc23)c1)C(F)(F)F (stereo not drawn) [Compound 181, 2,2,2-trifluoro-1-(3-(6-(4-(1-(morpholinomethyl)cyclopropoxy)phenyl)pyrazolo[1,5-a]pyrimidin-3-yl)phenyl)ethanamine] | < 5.00 | 5.48 | 7.15 | < 5.00 | 5.70 | < 5.00
NC(c1cccc(-c2cnn3cc(-c4ccc(OC5(CN6CCC(O)C6)CC5)cc4)cnc23)c1)C(F)(F)F (stereo not drawn) [Compound 182, 1-((1-(4-(3-(3-(1-amino-2,2,2-trifluoroethyl)phenyl)pyrazolo[1,5-a]pyrimidin-6-yl)phenoxy)cyclopropyl)methyl)pyrrolidin-3-ol] | < 5.00 | 5.31 | 6.92 | < 5.00 | 5.70 | < 5.00
C[S+](=O)([O-])c1cccc(-c2cnn3cc(-c4ccc(OC5(CN6C7CCC6CC7)CC5)cc4)cnc23)c1 [Compound 183, 6-(4-(1-(7-azabicyclo[2.2.1]heptan-7-ylmethyl)cyclopropoxy)phenyl)-3-(3-(methylsulfonyl)phenyl)pyrazolo[1,5-a]pyrimidine] | < 5.00 | 5.72 | 7.70 | < 5.00 | 6.59 | < 5.00
C[S+](=O)([O-])c1cccc(-c2cnn3cc(-c4ccc(OC5(CN6CCC7(CC6)CNC7)CC5)cc4)cnc23)c1 [Compound 184, 6-(4-(1-(2,7-diazaspiro[3.5]nonan-7-ylmethyl)cyclopropoxy)phenyl)-3-(3-(methylsulfonyl)phenyl)pyrazolo[1,5-a]pyrimidine] | < 5.00 | 5.64 | 7.64 | < 5.00 | 6.49 | < 5.00
C[S+](=O)([O-])c1cccc(-c2cnn3cc(-c4ccc(OC5(CN6CCCC(O)C6)CC5)cc4)cnc23)c1 (stereo not drawn) [Compound 186, 1-((1-(4-(3-(3-(methylsulfonyl)phenyl)pyrazolo[1,5-a]pyrimidin-6-yl)phenoxy)cyclopropyl)methyl)piperidin-3-ol] | < 5.00 | 6.30 | 7.70 | < 5.00 | 6.57 | < 5.00
CC(N)c1ccc(-c2cnc3c(-c4cccc([S+](C)(=O)[O-])c4)cnn3c2)cc1 (stereo not drawn) [Compound 187, 1-(4-(3-(3-(methylsulfonyl)phenyl)pyrazolo[1,5-a]pyrimidin-6-yl)phenyl)ethanamine] | < 5.00 | < 5.00 | 7.48 | < 5.00 | 6.37 | < 5.00
CC(N)c1ccc(-c2cnc3c(-c4cccc(C(C)O)c4)cnn3c2)cc1 (stereo not drawn) [Compound 188, 1-(3-(6-(4-(1-aminoethyl)phenyl)pyrazolo[1,5-a]pyrimidin-3-yl)phenyl)ethanol] | 5.09 | 5.33 | 7.14 | 5.39 | 6.01 | < 5.00
C[C@H](O)c1cccc(-c2cnn3cc(-c4ccc(OC5(CN6C7CCC6CC7)CC5)cc4)cnc23)c1 [Compound 196, (S)-1-(3-(6-(4-(1-(7-azabicyclo[2.2.1]heptan-7-ylmethyl)cyclopropoxy)phenyl)pyrazolo[1,5-a]pyrimidin-3-yl)phenyl)ethanol] | 5.05 | 5.60 | 7.62 | < 5.00 | 6.51 | < 5.00

The next lines start with the values.

pIC50 [1] | pIC50 [2] | pIC50 [3] | pIC50 [4] | pIC50 [5] | pIC50 [6] | Structure (SMILES)
< 5.00 | 5.60 | 7.36 | < 5.00 | 6.34 | < 5.00 | CS(=O)(=O)c1cccc(-c2cnn3cc(-c4ccc(C5(N)CC5)cc4)cnc23)c1 [Compound 190, 1-(4-(3-(3-(methylsulfonyl)phenyl)pyrazolo[1,5-a]pyrimidin-6-yl)phenyl)cyclopropanamine]
< 5.00 | 5.27 | 6.92 | < 5.00 | 5.82 | < 5.00 | CC(O)c1cccc(-c2cnn3cc(-c4ccc(C5(N)CC5)cc4)cnc23)c1 (stereo not drawn) [Compound 191, 1-(3-(6-(4-(1-aminocyclopropyl)phenyl)pyrazolo[1,5-a]pyrimidin-3-yl)phenyl)ethanol]
< 5.00 | 5.32 | 7.30 | < 5.00 | 6.19 | < 5.00 | NC1(c2ccc(-c3cnc4c(-c5ccc(S(N)(=O)=O)c6ccccc56)cnn4c3)cc2)CC1 [Compound 192, 4-(6-(4-(1-aminocyclopropyl)phenyl)pyrazolo[1,5-a]pyrimidin-3-yl)naphthalene-1-sulfonamide]
5.92 | < 5.00 | 6.26 | < 5.00 | 5.12 | < 5.00 | C[C@@H]1CNC[C@H](C)N1c1ccc(-c2cnc3c(-c4cc(C(F)(F)F)cc(S(C)(=O)=O)c4)cnn3c2)cc1 [Compound 193, 6-(4-((2R,6S)-2,6-dimethylpiperazin-1-yl)phenyl)-3-(3-(methylsulfonyl)-5-(trifluoromethyl)phenyl)pyrazolo[1,5-a]pyrimidine]
< 5.00 | 6.06 | 7.70 | < 5.00 | 6.64 | < 5.00 | CS(=O)(=O)c1cccc(-c2cnn3cc(-c4ccc(OC5(CN6CCC(O)CC6)CC5)cc4)cnc23)c1 [Compound 194, 1-((1-(4-(3-(3-(methylsulfonyl)phenyl)pyrazolo[1,5-a]pyrimidin-6-yl)phenoxy)cyclopropyl)methyl)piperidin-4-ol]
< 5.00 | 6.01 | 7.66 | < 5.00 | 6.57 | < 5.00 | CS(=O)(=O)c1cccc(-c2cnn3cc(-c4ccc(OC5(CN6CCC(O)C6)CC5)cc4)cnc23)c1 (stereo not drawn) [Compound 195, 1-((1-(4-(3-(3-(methylsulfonyl)phenyl)pyrazolo[1,5-a]pyrimidin-6-yl)phenoxy)cyclopropyl)methyl)pyrrolidin-3-ol]
< 5.00 | 5.70 | 7.28 | < 5.00 | 6.30 | < 5.00 | C[C@H](O)c1cccc(-c2cnn3cc(-c4ccc(OC5(CN6CCC7(CC6)CNC7)CC5)cc4)cnc23)c1 [Compound 197, (S)-1-(3-(6-(4-(1-(2,7-diazaspiro[3.5]nonan-7-ylmethyl)cyclopropoxy)phenyl)pyrazolo[1,5-a]pyrimidin-3-yl)phenyl)ethanol]
< 5.00 | 5.92 | 7.52 | < 5.00 | 6.15 | < 5.00 | C[C@H](O)c1cccc(-c2cnn3cc(-c4ccc(OC5(CN6CCCC6)CC5)cc4)cnc23)c1 [Compound 198, (S)-1-(3-(6-(4-(1-(pyrrolidin-1-ylmethyl)cyclopropoxy)phenyl)pyrazolo[1,5-a]pyrimidin-3-yl)phenyl)ethanol]
5.01 | 6.21 | 7.60 | < 5.00 | 6.21 | < 5.00 | C[C@H](O)c1cccc(-c2cnn3cc(-c4ccc(OC5(CN6CCCCC6)CC5)cc4)cnc23)c1 [Compound 199, (S)-1-(3-(6-(4-(1-(piperidin-1-ylmethyl)cyclopropoxy)phenyl)pyrazolo[1,5-a]pyrimidin-3-yl)phenyl)ethanol]
